According to BindingDB's records for doi:10.1021/jm000085e (Synaptic Pharmaceutical, 2000):

Assay: Binding affinity towards Alpha1D dog adrenergic receptors, using [125I]-HEAT as radioligand.

Ki: 133 nM
Compound: C[C@@H]1OC(=O)N(C(=O)NCCCN2CCC(c3ccc(F)cc3)CC2)[C@H]1c1ccc(F)c(F)c1 [4-(3,4-Difluoro-phenyl)-5-methyl-2-oxo-oxazolidine-3-carboxylic acid {3-[4-(4-fluoro-phenyl)-piperidin-1-yl]-propyl}-amide]
